In patent publication US20110136916A1, “6-SHOGAOL FOR USING IN A METHOD FOR THE TREATMENT OF LEUKEMIA” (China Pharmaceutical University, priority 2009, published 2011):
Read-outs that look alike come from different tables or passages of the source.

How the values were obtained:
[1] = tested on: human promyelocytic leukemia cell HL-60; experiment: MTT anti-proliferation, HL-60; format: cell-based; conditions: for growth inhibition (activities of cells vs control): HL-60, 1-20 μM; for IC50: HL-60, MTT, n = 3
Experimental: Cells in logarithmic growth phase were collected and then inoculated in 1˜2×10^4 cells/well in a 96-well plate respectively according to the sizes of cells and whether they attached to the wall, the cells were centrifuged and the supernatant was removed after growing for 24 hours, and then drug administration was carried out according to the groups as below: the drug group and the drug free group were set up for tumor cells (the concentrations ranged from 1˜20 μM), 5 or 6 duplicates were set for each group and the cells were incubated for 24 or 72 hours. The supernatant was removed and 100 μl serum free culture solution containing 0.5 mg/ml MTT (tetrazolium) was added for further incubation for 4 hours, subsequently 100 μl DMSO (dimethyl sulfoxide) was added and the plate was kept on the micro-shaker for 10 minutes, and the OD value was determined on a micro-plate reader at the wavelength of 570 nm. Evaluations on the toxicity were carried out on normal human cell line LO-2 and each test was repeated for three times.

[2] = tested on: human leukemia Jurkat cells; experiment: Annexin V/PI flow cytometry apoptosis of Jurkat cells; format: cell-based; conditions: for Apoptotic rate: Jurkat
Experimental: Jurkat cells in logarithmic growth phase of growth were collected (3−10×10^5) and inoculated to a 24-well plate in 3×10^5 cells/mL/well, then after incubation for 24 hours, different concentrations of 6-shogaol (0, 1, 2.5, 5, 10 and 15 μM) were added for treatment for 24 hours and also 6-shogaol at a concentration of 15 μM were added for treatment at different durations (0, 2, 4, 6, 12 and 24 h). After reacting with 6-shogaol under different conditions, the cells were collected into 1 mL centrifuge tubes and then centrifuged at 500 rpm (or 100×g) for 5 minutes, the supernatant was removed and the cells were rinsed with 0.01 M PBS at 500 rpm (or 100×g) for 5 minutes twice, and the flow cytometry analysis (Becton Dickinson FACScan Flow Cytometer) was carried out after adding binding solution and staining according to the directions for use of Annexin V/PI double staining kit (BD Company). The FACS data were analyzed by professional operators of the flow cytometer by using FLOWJO software (Tree Star, Calif.) software, the apoptotic rate was counted by the sum of early apoptosis and late apoptosis, and the results were shown in Table 2 and Table 3.

With `CCCCC/C=C/C(=O)CCc1ccc(O)c(OC)c1` [6-shogaol] the “growth inhibition (activities of cells vs control)” value ([1]; 24 hours, FIG. 2) was “significantly decreased”, the “growth inhibition (activities of cells vs control)” value ([1]; 72 hours, FIG. 6) was “significantly decreased” and the IC50 ([1]; 24 hours, read-out: Mean IC50 after 24 hours) was 6.93 ± 1.28 µM. For the same molecule, the IC50 ([1]; 72 hours, read-out: Mean IC50 after 72 hours) was 3.7 ± 0.25 µM, the IC50 ([1]; Homo sapiens, HL-60, 24 h, 24 hours, read-out: Mean IC50 after 24 hours) was < 10 µM and the IC50 ([1]; Homo sapiens, HL-60, 72 h, 72 hours, read-out: Mean IC50 after 72 hours) was < 5 µM. It also gave an Apoptotic rate ([2]; 1 μM, 24 hours, n = 3) of 11.2 ± 0.9bd %, an Apoptotic rate ([2]; 2.5 μM, 24 hours, n = 3) of 17.8 ± 1.4bd % and an Apoptotic rate ([2]; 5 μM, 24 hours, n = 3) of 25.9 ± 3.2bc %. It also gave an Apoptotic rate ([2]; 10 μM, 24 hours, n = 3) of 48.7 ± 3.1bd %, an Apoptotic rate ([2]; 15 μM, 2 hours, n = 3) of 7.7 ± 2.1% and an Apoptotic rate ([2]; 15 μM, 4 hours, n = 3) of 14.6 ± 2.5ac %. The Apoptotic rate ([2]; 15 μM, 6 hours, n = 3) was 28.5 ± 3.3bd %, the Apoptotic rate ([2]; 15 μM, 12 hours, n = 3) was 45.3 ± 2.6bd % and the Apoptotic rate ([2]; 15 μM, 24 hours, n = 3 (Table 2)) was 73.2 ± 2.8bd %. For the same molecule, the Apoptotic rate ([2]; 15 μM, 24 hours, n = 3 (Table 3)) was 72.3 ± 2.4bd % and the “induction of apoptosis of Jurkat cells (t-test)” value ([2]; summary statement, concentration and time dependent) was “significantly induce the apoptosis”.
